Read-outs that look alike come from different tables or passages of the source. Square brackets hold non-standard residues; d marks the D form. Peptide text beside a SMILES is read from it. Trp(5-OH) = N[C@@H](Cc1c[nH]c2ccc(O)cc12)C(=O)O
System: brain levels of L-5-hydroxytryptophan (L-5-HTP), serotonin (5-HT) and 5-hydroxyindoleacetic acid (5-HIAA)
Experiment: Biochemical analysis of brain levels of L-5-HTP, 5-HT and 5-HIAA one hour after a single dose (technique of CURZON and GREEN)
Type: in vivo, rats
Conditions: for %, relative to the controls, of 5-HIAA at dose of 10 mg/kg: single dose 10 mg/kg
Experimental: Biochemical analysis of the brain levles of L-5-hydroxytryptophan (L-5-HTP), serotonin (5-HT) and its first metabolite, 5-hydroxyindoleacetic acid (5- HIAA), was carried out one hour after the administration of a single dose to adult rats by the technique of CURZON and GREEN. Three doses were studied, i.e. 10, 25 and 50 mg/kg, 10 animals being used per dose. Table I below indicates the percentage increases in 5-HTP, 5-HT and 5-HIAA relative to the levels found in the control animals: […]

[1] = brain level, adult rats, one hour after administration, percentage increase relative to control animals
[2] = brain level, adult rats, single dose 25 mg/kg, one hour after administration, percentage increase relative to control animals
[3] = brain level, adult rats, single dose 50 mg/kg, one hour after administration, percentage increase relative to control animals

SMILES: NC(=O)[C@@H](N)Cc1c[nH]c2ccc(O)cc12.O [Example 21, 5-HYDROXY-L-TRYPT[…], HYDRATE]
- change in vivo at 25 mg/kg (Rattus norvegicus, 1 h, read-out: %, relative to the controls, of 5-HIAA at dose of 25 mg/kg): 50%
- change in vivo at 50 mg/kg (Rattus norvegicus, 1 h, read-out: %, relative to the controls, of 5-HIAA at dose of 50 mg/kg): 170%
- change in vivo at 50 mg/kg (Rattus norvegicus, 1 h, read-out: %, relative to the controls, of 5-HT at dose of 50 mg/kg): 20%
- change in vivo at 10 mg/kg (Rattus norvegicus, 1 h, read-out: %, relative to the controls, of L-5-HTP at dose of 10 mg/kg): 125%
- change in vivo at 25 mg/kg (Rattus norvegicus, 1 h, read-out: %, relative to the controls, of L-5-HTP at dose of 25 mg/kg): 250%
- change in vivo at 50 mg/kg (Rattus norvegicus, 1 h, read-out: %, relative to the controls, of L-5-HTP at dose of 50 mg/kg): 700%

SMILES: NC(=O)[C@@H](N)Cc1c[nH]c2ccc(O)cc12.O [Example 21, 5-HYDROXY-L-TRYPT[…]]
- %, relative to the controls, of 5-HIAA at dose of 10 mg/kg [1]: 30%

SMILES: COC(=O)[C@H](Cc1c[nH]cn1)NC(=O)[C@@H](N)Cc1c[nH]c2ccc(O)cc12 [Example 22, METHYL ESTER OF 5-HYDROXY-L-TRYPTOPHYL-L-HISTIDINE] (H-[Trp(5-OH)]-His-OMe)
- %, relative to the controls, of 5-HIAA at dose of 10 mg/kg [1]: 40%
- %, relative to the controls, of 5-HIAA at dose of 25 mg/kg [2]: 140%
- %, relative to the controls, of 5-HT at dose of 25 mg/kg [2]: 15%
- %, relative to the controls, of L-5-HTP at dose of 25 mg/kg [2]: 200%
- %, relative to the controls, of 5-HIAA at dose of 50 mg/kg [3]: 300%
- %, relative to the controls, of 5-HT at dose of 50 mg/kg [3]: 15%
- %, relative to the controls, of L-5-HTP at dose of 50 mg/kg [3]: 300%
